Experimental data taken from patent US4301169A, “Novel imidazole compound and anti-depressing agent containing the same” (Eisai Co., Ltd., priority 1978, dated 1981).
Like-named read-outs stand apart in the source and are kept apart here.

Legend:
[1] = Acute toxicity (lethal action); conditions: mouse, in vivo, mice, hydrochloride, read-out: Acute Toxicity (Lethal Ratio %)
Procedure: (§1) Each test compound is used in the form of a hydrochloride.
The test compound is administered in a dose of 100 or 400 mg/kg to mice for examining the lethal action. Five mice are used for each dose level. The lethal ratio is measured 24 hours after oral administration.

[2] = system: reserpine-induced hypothermia; assay: Anti-reserpine activity (antagonism against reserpine-induced hypothermia); type: in vivo, male ddy mice; conditions: Mus musculus; minimum dose necessary for increasing body temperature of reserpine-treated mice significantly (P < 0.05) over control; reserpine 2.5 mg/kg i.p., test compound (hydrochloride) oral 18 hours later
Procedure: as §1
(1) Anti-reserpine activity:
The antagonism against the reserpine-induced hypothermia is examined according to the method of B. M. Askew (Life Science, 4, 725-730, 1963).
Male ddy mice having a body weight of 19 to 25 g are used as the test animal. Reserpine is injected intraperitoneally in dose of 2.5 mg/kg, and 18 hours after the injection, the test compound is orally administered and the change of the body temperature with the lapse of time is examined by using a thermistor type thermometer (Model MGA III manufactured by Shibaura Denshi).
The effect of each compound is examined with 2 to 4 dose levels.
Each of the test compound is used in the form of an aqueous solution. The control animal is treated with physiological saline solution. Four animals having a body temperature of 24° to 25° C., 18 hours after the injection of reserpine, are used for each dose. The experiment is carried out in a room at 23° to 25° C.
^(a) The minimum dose necessary for increasing the body temperature o

[3] = system: spontaneous motility; assay: Influence on spontaneous motility; type: in vivo, male ddy mice; conditions: Mus musculus, 1 h; 40 mg/kg oral, hydrochloride, 60 minutes before start; 60 minutes measurement; * = significant at P <0.05; read-out: Relative Spontaneous Motility (%) to Control
Procedure: as §1
(2) Influence on spontaneous motility:
The spontaneous motility is examined according to the method of T. H. Sevensson (Psychopharmacologia, 14, 157, 1969). Three ddy male mice having a body weight of 20 to 25 g are put in a black observation box of an acrylic resin as one group, and the amount of the spontaneous motility during a period of 60 minutes is measured and recorded by using Animex (manufactured by Farrod Co., Sweden).
Sixty minutes before the start of the measurement of the spontaneous motility, the test compound is orally administered in a dose of 40 mg/kg. The control animal is treated with physiological saline solution. Five groups (15 mice) are used for each dose level.
*Significant increase of the spontaneous motility at P <0.05

[4] = system: dopamine and its metabolites in the mouse brain; assay: Effect on the level of dopamine and its metabolites in the mouse brain; type: in vivo
Excerpt: Furthermore, we investigated the effect of the compound of the present invention (compound H and I) on the level of dopamine and its metabolites in the mouse brain. […] This means that the compounds of the invention antagonize against the reserpine-induced depression in a way completely different from the known tricyclic antidepressant.

[5] = system: spontaneous motility; assay: Influence on spontaneous motility; type: in vivo, male ddy mice; conditions: Mus musculus, po, 1 h; 10 mg/Kg P.O. (footnote b), hydrochloride; * = significant at P <0.05; read-out: Relative Spontaneous Motility (%) to Control

Compound	mortality at 24 h ([1]; 100 mg/Kg oral) [%]	mortality at 24 h ([1]; 400 mg/Kg oral) [%]	minimal effective dose [2] [mg/kg]	response vs control in vivo at 40 mg/kg [3] [%]	dopamine turnover in the brain [4]	response vs control in vivo at 10 mg/kg [5] [%]
Cc1ccc(-n2ccnc2C)cc1C [A, 1-(3,4-Dimethylphenyl)-2-methylimidazole]	0	100	2.5	82 ± 6	–	–
Cc1nccn1-c1ccc(N(C)C)cc1 [B, 1-(4-Dimethylaminophenyl)-2-methylimidazole]	0	80	2.5	526 ± 24	–	–
CCc1nccn1-c1ccc(Cl)c(Cl)c1 [C, 1-(3,4-Dichlorophenyl)-2-ethylimidazole]	0	20	1.25 to 2.5	99 ± 7	–	–
Cc1cn(-c2ccc(N)cc2)c(C)n1 [D, 1-(4-Aminophenyl)-2,4-dimethylimidazole]	0	60	5	473 ± 48	–	–
Cc1nccn1-c1ccc(N)c(C(F)(F)F)c1 [E, 1-(3-Trifluoromethyl-4-aminophenyl)-2-methylimidazole]	0	0	5	70 ± 8	–	–
CCc1nccn1-c1ccc(N)cc1 [F, 1-(4-Aminophenyl)-2-ethylimidazole]	0	60	1.25	382 ± 25	–	–
Cc1nccn1-c1ccc(N)cc1Cl [G, 1-(2-Chloro-4-aminophenyl)-2-methylimidazole]	0	40	10	254 ± 68	–	–
Cc1nccn1-c1cccc(N)c1 [H, 1-(3-Aminophenyl)-2-methylimidazole]	0	0	2.5	83 ± 3	reduce dopamine turnover in the brain	–
Cc1ccc(-n2ccnc2C)cc1N [I, 1-(3-Amino-4-methylphenyl)-2-methylimidazole]	0	20	5	58 ± 8	reduce dopamine turnover in the brain	–
CCCCNc1ccc(-n2ccnc2C)cc1 [J, 1-(4-n-Butylaminophenyl)-2-methylimidazole]	0	60	5	543 ± 57	–	–
Cc1nccn1-c1ccc(N)cc1 [K, 1-(4-Aminophenyl)-2-methylimidazole]	40	80	1.25	–	–	350 ± 31
Cc1nccn1-c1ccc(NC(=O)c2ccc(Cl)cc2)cc1 [L, 1-[4-(4-Chlorobenzoylamino)phenyl]-2-methylimidazole]	0	0	10	367 ± 30	–	–
Cc1nccn1-c1ccc(NC(=O)c2ccc(F)cc2)cc1 [M, 1-[4-(4-Fluorobenzoylamino)phenyl]-2-methylimidazole]	0	0	10	229 ± 30	–	–
CCc1nccn1-c1ccc(NC(=O)c2ccc(Cl)cc2)cc1 [N, 1-[4-(4-Chlorobenzoylamino)phenyl]-2-ethylimidazole]	0	0	2.5	207 ± 51	–	–
CCc1nccn1-c1ccc(NC(=O)c2ccc(C)cc2)cc1 [O, 1-[4-(4-Methylbenzoylamino)phenyl]-2-ethylimidazole]	0	20	5	287 ± 23	–	–
CC(C)c1nccn1-c1ccc(NC(=O)c2ccc(Cl)cc2)cc1 [P, 1-[4-(4-Chlorobenzoylamino)phenyl]-2-isopropylimidazole]	0	0	10	92 ± 14	–	–
Cc1ccc(C(=O)Nc2ccc(-n3ccnc3C)cc2)cc1 [Q, 1-[4-(4-Methylbenzoylamino)phenyl]-2-methylimidazole]	0	40	10	447 ± 51	–	–
